{"source": "patent US20220249463A1", "about": "“METHODS OF ALTERING CARDIAC REMODELING USING COMPOUNDS THAT PROMOTE GLUCOSE OXIDATION” (IMBRIA PHARMACEUTICALS, INC., priority 2019, published 2022)", "assay": "Stability of CV-8972 in aqueous solution at different concentrations and pH", "format": "physicochemical", "method": "The stability of CV-8972 was analyzed. Aqueous samples containing CV-8972 at different concentrations and pH were incubated for various periods and analyzed.\nForm A of CV-8972 were analyzed for stability in aqueous solution. Aqueous samples containing CV-8972 at different concentrations and pH were incubated for various periods and analyzed.", "key": {"[1]": {"conditions": "289-MBA-15-A 2 mg/mL pH 6 (Form B), 22 hrs, pH 6.7"}, "[2]": {"conditions": "289-MBA-15-A 2 mg/mL pH 7 (Form B), 0 hrs, pH 6.5"}, "[3]": {"conditions": "289-MBA-15-A 2 mg/mL pH 7 (Form B), 1 hrs, pH 6.6"}, "[4]": {"conditions": "289-MBA-15-A 2 mg/mL pH 7 (Form B), 4 hrs, pH 6.5"}, "[5]": {"conditions": "289-MBA-15-A 10 mg/mL pH 6 (Form B), 0 hrs, pH 6"}, "[6]": {"conditions": "289-MBA-15-A 10 mg/mL pH 6 (Form B), 1 hrs, pH 6.1"}, "[7]": {"conditions": "289-MBA-15-A 10 mg/mL pH 6 (Form B), 4 hrs, pH 6"}, "[8]": {"conditions": "289-MBA-15-A 10 mg/mL pH 6 (Form B), 6 hrs, pH 5.9"}, "[9]": {"conditions": "289-MBA-15-A 10 mg/mL pH 6 (Form B), 22 hrs, pH 5.9"}, "[10]": {"conditions": "289-MBA-15-A 10 mg/mL pH 7 (Form B), 0 hrs, pH 7.4"}, "[11]": {"conditions": "289-MBA-15-A 10 mg/mL pH 7 (Form B), 1 hrs, pH 7.4"}, "[12]": {"conditions": "289-MBA-15-A 10 mg/mL pH 7 (Form B), 4 hrs, pH 7.4"}, "[13]": {"conditions": "289-MBA-15-A 10 mg/mL pH 7 (Form B), 6 hrs, pH 7.3"}, "[14]": {"conditions": "Form A, aqueous, 4.2 mg/mL, Initial pH = 2.3, 0 hrs"}, "[15]": {"conditions": "Form A, aqueous, 4.2 mg/mL, Initial pH = 2.3, 1 hrs"}, "[16]": {"conditions": "Form A, aqueous, 4.2 mg/mL, Initial pH = 2.3, 2 hrs"}, "[17]": {"conditions": "Form A, aqueous, 4.2 mg/mL, Initial pH = 2.3, 6 hrs"}, "[18]": {"conditions": "Form A, aqueous, 12.5 mg/mL, Initial pH = 2.1, 0 hrs"}, "[19]": {"conditions": "Form A, aqueous, 12.5 mg/mL, Initial pH = 2.1, 1 hrs"}, "[20]": {"conditions": "Form A, aqueous, 12.5 mg/mL, Initial pH = 2.1, 2 hrs"}, "[21]": {"conditions": "Form A, aqueous, 12.5 mg/mL, Initial pH = 2.1, 6 hrs"}, "[22]": {"conditions": "Form A, aqueous, 21 mg/mL, Initial pH = 2.0, 0 hrs"}, "[23]": {"conditions": "Form A, aqueous, 21 mg/mL, Initial pH = 2.0, 1 hrs"}, "[24]": {"conditions": "Form A, aqueous, 21 mg/mL, Initial pH = 2.0, 2 hrs"}, "[25]": {"conditions": "Form A, aqueous, 21 mg/mL, Initial pH = 2.0, 6 hrs"}}, "data": [{"smiles": "COc1ccc(CN2CCN(CCOC(=O)c3cccnc3)CC2)c(OC)c1OC", "note": "[CV-8972, 2-(4-(2,3,4-trimethoxybenzyl)piperazin-1-yl)ethyl nicotinate]", "values": [{"measurement": "Retention Time 2.2", "setting": "[1]", "result": 7.72}, {"measurement": "Retention Time 2.6", "setting": "[1]", "result": 1.13}, {"measurement": "Retention Time 4.2", "setting": "[1]", "result": 0.86}, {"measurement": "Retention Time 4.7", "setting": "[1]", "result": 1.14}, {"measurement": "Retention Time 5.6", "setting": "[1]", "result": 89.15}, {"measurement": "Retention Time 2.2", "setting": "[2]", "result": 1.62}, {"measurement": "Retention Time 4.2", "setting": "[2]", "result": 0.9}, {"measurement": "Retention Time 5.6", "setting": "[2]", "result": 97.48}, {"measurement": "Decrease in purity of CV-8972 between time points", "setting": "[3]", "result": 2.02}, {"measurement": "Retention Time 2.2", "setting": "[3]", "result": 3.16}, {"measurement": "Retention Time 4.2", "setting": "[3]", "result": 0.89}, {"measurement": "Retention Time 4.7", "setting": "[3]", "result": 0.49}, {"measurement": "Retention Time 5.6", "setting": "[3]", "result": 95.46}, {"measurement": "Decrease in purity of CV-8972 between time points", "setting": "[4]", "result": 1.54}, {"measurement": "Retention Time 2.2", "setting": "[4]", "result": 4.27}, {"measurement": "Retention Time 2.6", "setting": "[4]", "result": 0.53}, {"measurement": "Retention Time 4.2", "setting": "[4]", "result": 0.66}, {"measurement": "Retention Time 4.7", "setting": "[4]", "result": 0.62}, {"measurement": "Retention Time 5.6", "setting": "[4]", "result": 93.92}, {"measurement": "Retention Time 2.2", "setting": "[5]", "result": 3.3}, {"measurement": "Retention Time 2.6", "setting": "[5]", "result": 0.6}, {"measurement": "Retention Time 4.2", "setting": "[5]", "result": 0.26}, {"measurement": "Retention Time 4.7", "setting": "[5]", "result": 0.48}, {"measurement": "Retention Time 5.6", "setting": "[5]", "result": 95.36}, {"measurement": "Decrease in purity of CV-8972 between time points", "setting": "[6]", "result": 0.55}, {"measurement": "Retention Time 2.2", "setting": "[6]", "result": 3.76}, {"measurement": "Retention Time 2.6", "setting": "[6]", "result": 0.65}, {"measurement": "Retention Time 4.2", "setting": "[6]", "result": 0.25}, {"measurement": "Retention Time 4.7", "setting": "[6]", "result": 0.53}, {"measurement": "Retention Time 5.6", "setting": "[6]", "result": 94.81}, {"measurement": "Decrease in purity of CV-8972 between time points", "setting": "[7]", "result": 0.12}, {"measurement": "Retention Time 2.2", "setting": "[7]", "result": 3.97}, {"measurement": "Retention Time 2.6", "setting": "[7]", "result": 0.59}, {"measurement": "Retention Time 4.2", "setting": "[7]", "result": 0.19}, {"measurement": "Retention Time 4.7", "setting": "[7]", "result": 0.56}, {"measurement": "Retention Time 5.6", "setting": "[7]", "result": 94.69}, {"measurement": "Decrease in purity of CV-8972 between time points", "setting": "[8]", "result": 0.3}, {"measurement": "Retention Time 2.2", "setting": "[8]", "result": 4.3}, {"measurement": "Retention Time 2.6", "setting": "[8]", "result": 0.54}, {"measurement": "Retention Time 4.2", "setting": "[8]", "result": 0.17}, {"measurement": "Retention Time 4.7", "setting": "[8]", "result": 0.6}, {"measurement": "Retention Time 5.6", "setting": "[8]", "result": 94.39}, {"measurement": "Decrease in purity of CV-8972 between time points", "setting": "[9]", "result": 0.46}, {"measurement": "Retention Time 2.2", "setting": "[9]", "result": 4.53}, {"measurement": "Retention Time 2.6", "setting": "[9]", "result": 0.69}, {"measurement": "Retention Time 4.2", "setting": "[9]", "result": 0.19}, {"measurement": "Retention Time 4.7", "setting": "[9]", "result": 0.65}, {"measurement": "Retention Time 5.6", "setting": "[9]", "result": 93.93}, {"measurement": "Retention Time 2.2", "setting": "[10]", "result": 6.2}, {"measurement": "Retention Time 2.6", "setting": "[10]", "result": 1.16}, {"measurement": "Retention Time 4.2", "setting": "[10]", "result": 0.27}, {"measurement": "Retention Time 4.7", "setting": "[10]", "result": 0.87}, {"measurement": "Retention Time 5.6", "setting": "[10]", "result": 91.5}, {"measurement": "Decrease in purity of CV-8972 between time points", "setting": "[11]", "result": 5.32}, {"measurement": "Retention Time 2.2", "setting": "[11]", "result": 10.47}, {"measurement": "Retention Time 2.6", "setting": "[11]", "result": 1.65}, {"measurement": "Retention Time 4.2", "setting": "[11]", "result": 0.25}, {"measurement": "Retention Time 4.7", "setting": "[11]", "result": 1.44}, {"measurement": "Retention Time 5.6", "setting": "[11]", "result": 86.18}, {"measurement": "Decrease in purity of CV-8972 between time points", "setting": "[12]", "result": 3.82}, {"measurement": "Retention Time 2.2", "setting": "[12]", "result": 13.64}, {"measurement": "Retention Time 2.6", "setting": "[12]", "result": 1.93}, {"measurement": "Retention Time 4.2", "setting": "[12]", "result": 0.19}, {"measurement": "Retention Time 4.7", "setting": "[12]", "result": 1.89}, {"measurement": "Retention Time 5.6", "setting": "[12]", "result": 82.36}, {"measurement": "Decrease in purity of CV-8972 between time points", "setting": "[13]", "result": 2.99}, {"measurement": "Retention Time 2.2", "setting": "[13]", "result": 15.66}, {"measurement": "Retention Time 2.6", "setting": "[13]", "result": 2.57}, {"measurement": "Retention Time 4.2", "setting": "[13]", "result": 0.2}, {"measurement": "Retention Time 4.7", "setting": "[13]", "result": 0.2}, {"measurement": "Retention Time 5.6", "setting": "[13]", "result": 79.37}, {"measurement": "Retention Time 3.9", "setting": "[14]", "result": 5.35}, {"measurement": "Retention Time 5.4", "setting": "[14]", "result": 94.65}, {"measurement": "% change from t0 of RT 5.4", "setting": "[15]", "result": 1.41, "unit": "%"}, {"measurement": "Retention Time 3.9", "setting": "[15]", "result": 4.02}, {"measurement": "Retention Time 5.4", "setting": "[15]", "result": 95.98}, {"measurement": "% change from t0 of RT 5.4", "setting": "[16]", "result": "−3.66", "unit": "%"}, {"measurement": "Amount of peak at retention time 1.9", "setting": "[16]", "result": 3.72}, {"measurement": "Retention Time 3.9", "setting": "[16]", "result": 5.09}, {"measurement": "Retention Time 5.4", "setting": "[16]", "result": 91.19}, {"measurement": "% change from t0 of RT 5.4", "setting": "[17]", "result": "−10.21", "unit": "%"}, {"measurement": "Amount of peak at retention time 1.9", "setting": "[17]", "result": 9.71}, {"measurement": "Retention Time 3.9", "setting": "[17]", "result": 5.3}, {"measurement": "Retention Time 5.4", "setting": "[17]", "result": 84.99}, {"measurement": "Retention Time 3.9", "setting": "[18]", "result": 1.79}, {"measurement": "Retention Time 5.4", "setting": "[18]", "result": 98.21}, {"measurement": "% change from t0 of RT 5.4", "setting": "[19]", "result": "−1.02", "unit": "%"}, {"measurement": "Amount of peak at retention time 1.9", "setting": "[19]", "result": 1.38}, {"measurement": "Retention Time 3.9", "setting": "[19]", "result": 1.41}, {"measurement": "Retention Time 5.4", "setting": "[19]", "result": 97.21}, {"measurement": "% change from t0 of RT 5.4", "setting": "[20]", "result": "−2.35", "unit": "%"}, {"measurement": "Amount of peak at retention time 1.9", "setting": "[20]", "result": 2.43}, {"measurement": "Retention Time 3.9", "setting": "[20]", "result": 1.67}, {"measurement": "Retention Time 5.4", "setting": "[20]", "result": 95.9}, {"measurement": "% change from t0 of RT 5.4", "setting": "[21]", "result": "−8.79", "unit": "%"}, {"measurement": "Retention Time 2.2", "setting": "[21]", "result": 1.04}, {"measurement": "Retention Time 3.9", "setting": "[21]", "result": 1.74}, {"measurement": "Retention Time 5.4", "setting": "[21]", "result": 89.58}, {"measurement": "Retention Time 3.9", "setting": "[22]", "result": 1.12}, {"measurement": "Retention Time 5.4", "setting": "[22]", "result": 98.88}, {"measurement": "% change from t0 of RT 5.4", "setting": "[23]", "result": "−0.86", "unit": "%"}, {"measurement": "Amount of peak at retention time 1.9", "setting": "[23]", "result": 1.03}, {"measurement": "Retention Time 3.9", "setting": "[23]", "result": 0.94}, {"measurement": "Retention Time 5.4", "setting": "[23]", "result": 98.03}, {"measurement": "% change from t0 of RT 5.4", "setting": "[24]", "result": "−1.79", "unit": "%"}, {"measurement": "Amount of peak at retention time 1.9", "setting": "[24]", "result": 1.9}, {"measurement": "Retention Time 3.9", "setting": "[24]", "result": 1}, {"measurement": "Retention Time 5.4", "setting": "[24]", "result": 97.11}, {"measurement": "% change from t0 of RT 5.4", "setting": "[25]", "result": "−6.78", "unit": "%"}, {"measurement": "Retention Time 2.2", "setting": "[25]", "result": 0.83}, {"measurement": "Retention Time 3.9", "setting": "[25]", "result": 0.96}, {"measurement": "Retention Time 5.4", "setting": "[25]", "result": 92.18}]}]}
